Results reported in patent publication US20130064859A1, “COMBINATORIAL VITAMIN D AND PROBIOTIC THERAPY FOR INFLAMMATORY BOWEL DISEASE” (priority 2011, published 2013).

How the values were obtained:
CD4+Foxp3+ T cells = assay: mouse DC / CD4+ T cell co-culture, Foxp3+ Treg induction; format: cell-based, mice; conditions: FIG. 6B
Procedure: In a particular example of the method of paragraph, mouse dendritic cells (DCs) are treated with PSA or PSA and vitamin D metabolite for 16-18 hrs, washed and co-cultured with naïve CD4+ T cells. After 4 days, cells were collected and stained for Foxp3. Percentage of Foxp3+ CD4+ T cells were determined by flow cytometry.
(§1) (A) Mouse DCs were stimulated with PSA (or PBS control), and Cyp27b1 transcript levels were measured by qRT-PCR. PSA induces the expression of the vitamin D-activating enzyme from WT, but not TLR2−/− DCs. (B) Mouse DCs were treated with PSA, washed and co-cultured with naïve CD4+ T cells. After 4 days, PSA increased Foxp3+ Treg proportions (see % in box). The vitamin D metabolite 25D augmented PSA-induced Tregs. (C) Human monocytes were treated with PSA or vehicle, washed and co-cultured with CD4+ T cells from PBMCs of the same donor. The MFI for Foxp3 among CD4+CD25+ T cells is shown with or without TGFβ. Collectively, we propose a model whereby PSA signals through TLR2 on DCs to induce expression of Cyp27b1, which converts 25D to 1,25D. The vitamin D receptor (VDR) in T cells responds to 1,25 D, and along with other PSA-specific signals, mediated the development of Treg cells (see diagram in FIG. 1).
(§2) Vitamin D enhances PSA-mediated induction of mouse and human Tregs. […]

[1] = tested on: Foxp3 expression in human Tregs; assay: human monocyte / CD4+ T cell co-culture, Foxp3 MFI; format: cell-based; conditions: FIG. 6C
Procedure: In a particular example of the method of paragraph, in vitro, human monocytes are treated with PSA or vehicle for 16-18 hrs, washed and co-cultured with CD4+ T cells from PBMCs of the same donor with or without TGFb. After 2 days, cells were collected and stained for Foxp3. MFI of Foxp3 among CD4+CD25+ T cells was determined by flow cytometry.
as §1, §2

TNBS colitis = assay: TNBS experimental colitis in mice treated with PSA; format: in vivo; conditions: for IL-10 expression in MLNs (qRT-PCR) / IL-17 levels in MLNs (qRT-PCR): FIG. 3C
Procedure: (§3) (A) Mice were treated with PSA or PBS. Analysis of the percentage of Foxp3+ cells within the CD4+CD25+ population in the MLNs is shown, indicated by the numbers in the top right quadrant. (B) CD4+CD25+ cells were purified from the MLNs of colitic PBS or PSA-treated mice and incubated with CFSE-pulsed CD4+CD25-responder cells in an in vitro suppression assay. Numbers indicate the percentage of cells undergoing at least one cellular division at 2 different ratios of effector T cells (Teff) and regulatory T cells (Treg). Top panels show results from healthy mice (−TNBS). (C) Disease scores for mice pre- and post-treated with PSA during TNBS colitis were assessed by a blinded pathologist. P values determined by a two-tailed Mann-Whitney U-test. **p value of <0.01. (D) Colons from mice were fixed, sectioned and stained with H&E to determine disease severity. Representative sections are shown.
(A) C57B1/6 WT or TLR2−/− animals were gavaged with purified PSA (or PBS) prior to TNBS administration. 5-6 days after onset of TNBS colitis, colons of animals were fixed, sectioned and H&E stained. Representative histological sections are shown. […] Each symbol represents a separate animal. *p value of <0.05. NS, not significant. (C) RNA was extracted from the MLNs of indicated mice either treated with PBS or PSA, and the expression levels of IL-10 and IL-17A were assayed by qRT-PCR. (D) Percentages of CD4+CD25+Foxp3+ T cells in the MLNs of TLR2−/−mice treated with PBS or PSA. Plots are gated on CD4+ T cells. Note: PSA increases CD4+CD25+Foxp3+ Treg proportions in WT mice by ˜25%.
B. fragilis induces Tregs that prevent and cure experimental IBD. Maintenance of homeostasis toward the intestinal microbial milieu is critical to the preservation of health, and defects in mucosal tolerance lead to disorders such as IBD. In animal models of IBD, intestinal inflammation is suppressed by various subsets of regulatory T cells (Tregs). Tregs emerge from the thymus and are marked by expression of CD4, CD25 and the transcription factor Foxp3 (Forkhead Box transcription factor for Treg differentiation). We have recently reported that the prominent human commensal, B. fragilis, directs the development of Foxp3+ Tregs in the gut during protection from experimental colitis in animal models. […] The Mazmanian laboratory employs 2 models of experimental colitis: 1) the T cell transfer model whereby various T cell subsets are transferred into RAG−/− animals allowing for the functional study of both pro- and anti-inflammatory T cells; 2) the TNBS (2,4,6-trinitrobenzene sulfonic acid) model, where rectal treatment of animals with an immunogenic chemical results in gut inflammation.
(§4) Here, we present data from the TNBS model, representative of results similar to the T cell transfer model. […] During protection from colitis (TNBS+PSA), PSA increases in-the percentage of Foxp3+ cells within the CD4+CD25+ compartment of the MLNs. […] The suppressive capacity of Tregs during PSA-mediated protection from intestinal inflammation was determined by in vitro suppression assays.
To examine if PSA can prevent and cure established colitis, animals were induced for TNBS colitis, and groups were either treated with vehicle (TNBS+PBS) or PSA either: 1) prior to disease induction (pre-TNBS+PSA) or 2) following rectal TNBS administration (post-TNBS+PSA).
PSA protection from experimental IBD requires TLR2 signaling. Multiple studies have implicated TLR signaling by innate immune cells during inflammatory disease. […] Wild-type (WT) or TLR2−/− animals were orally treated with PSA or PBS prior to induction of TNBS colitis. […] In contrast, TLR2−/− mice treated with PSA had marked inflammation including thickening of the mucosa, infiltrating leukocytes and crypt loss (FIG. 3A). […] As previously reported, WT animals were protected from colitis by PSA.

[2] = tested on: proliferation of CD4+CD25- responder T cells; assay: in vitro suppression assay with CD4+CD25+ Tregs from MLNs of treated mice; format: cell-based; conditions: Tregs from PSA fed mice (TNBS+PSA) vs untreated animals, FIG. 2B
Procedure: as §3, §4

Cyp27b1 = assay: qRT-PCR of Cyp27b1 in bone marrow-derived dendritic cells treated with PSA; format: cell-based, mice; conditions: FIG. 6A
Procedure: as §1
Vitamin D enhances PSA-mediated induction of mouse and human Tregs. As outlined above, the ability of PSA to protect against IBD in mice involves the gut-specific conversion of CD4+ cell into IL-10-secreting Foxp3+ Tregs. We hypothesize that vitamin D may play a pivotal role in this process, given our novel finding that PSA induces the vitamin D-activating machinery in mice (see FIG. 5C). […]

[3] = PSA following the onset of disease, data not shown

25-hydroxyvitamin D [25D, reference compound]
effect on PSA-induced increase of CD4+Foxp3+ T cells (CD4+Foxp3+ T cells; co-treatment of WT BMDCs with PSA and 25D): further enhanced

TGFβ [reference compound]
effect on PSA-induced Tregs ([1]; co-culture with or without TGFβ): does not further enhance

polysaccharide A [PSA]
colitis disease score (TNBS colitis; PSA following rectal TNBS administration (post-TNBS+PSA)): prevented the development of disease with equal efficacy | Foxp3 expression by gut CD4+ T cells (TNBS colitis; [3]): increased | IL-10 expression by gut CD4+ T cells (TNBS colitis; [3]): increased | colitis disease score (TNBS colitis; PSA prior to disease induction (pre-TNBS+PSA)): prevented the development of disease with equal efficacy | absolute number of CD4+CD25+Foxp3+ cells in the MLNs (TNBS colitis; PSA-treated vs PBS or non-colitic animals, data not shown): significantly higher | IL-10 expression in MLNs (qRT-PCR) (TNBS colitis; TLR2-/- animals): no longer up-regulated | protection from colitis (colitis score) (TNBS colitis; TLR2-/- animals, oral PSA prior to TNBS vs PBS, FIG. 3B): not protected | percentage of CD4+Foxp3+ Tregs (TNBS colitis; TLR2-/- animals, relative to PBS controls, FIG. 3D): no differences | IL-17 levels in MLNs (qRT-PCR) (TNBS colitis; TLR2-/- mice, PSA compared to PBS): increased | percentage of Foxp3+ cells within the CD4+CD25+ compartment of the MLNs (TNBS colitis; TNBS+PSA vs TNBS+PBS, FIG. 2A): increases | IL-10 expression in MLNs (qRT-PCR) (TNBS colitis; WT animals): induced | IL-17 levels in MLNs (qRT-PCR) (TNBS colitis; WT animals): Suppression | protection from colitis (histopathology, colitis score) (TNBS colitis; WT animals, oral PSA prior to TNBS, FIG. 3A/B): protected from disease | increase of CD4+CD25+Foxp3+ Treg proportions (TNBS colitis; WT mice, MLNs, FIG. 3 note): ~25% | pro-inflammatory Th17 cells (TNBS colitis; during both protection and cure of colitis, data not shown): significant decrease | suppression of T cell proliferation by Tregs from MLNs [2]: suppressed T cell proliferation to a significantly higher level | induction of Cyp27b1 expression (Cyp27b1; DCs from TLR2-/- mice): greatly diminished | induction of Cyp27b1 expression (Cyp27b1; WT BMDC, PSA vs PBS control): 5 fold | proportions of CD4+Foxp3+ T cells in culture (CD4+Foxp3+ T cells; WT BMDCs treated with PSA, over media controls): increases | Foxp3 expression in human Tregs (MFI among CD4+CD25+ T cells) ([1]; human monocytes treated with purified PSA or vehicle): promotes Foxp3 expression
